Assays:
Assay type in all cases: cell-based, P. falciparum
[1] = tested on: ring-stage PA^CSA IE cytoadhesion to SBEC 1D; assay: Ring-stage IE cytoadhesion inhibition assay on SBEC 1D (Example 1); conditions: for inhibitory activity on ring-stage IE cytoadhesion to SBEC 1D (in words): ring-stage PA^CSA IE 8 hours post-invasion, glycosaminoglycans, enzymes on target cells, thrombospondin; for sensitivity of ring-stage IE^CSA cytoadhesion to inhibitor: 0.1 mg/ml CSA, or target cells pretreated with 1 U/ml chondroitinase ABC, until the 16th hour after invasion; for time after invasion of maximal inhibition of IE^CSA binding: highly synchronized PA^CSA IE tested every 4 hours throughout the cycle
Protocol: Gelatin-enriched preparations of mature-stage IE were resuspended at a concentration of 5×10^6 IE/ml in cytoadhesion medium at pH 6.8. Cytoadhesion microassays were then performed on 12-well IFA slides (Institut Pasteur, Paris) as previously described (Pouvelle, B. Fusai, T. Lepolard, C. & Gysin, J. biological and biochemical characteristics of cytoadhesion of Plasmodium falciparum-infected erythrocytes to chondroitin-4-sulfate. Infect. Immun. 66, 4950-4956 (1998)).
Ring-stage cytoadhesion assays were performed with endothelial cells as described above and with placental cryosections as previously described (Gysin, J., Pouvelle, B., Le Tonqueze, M., Edelman, L. & Boffa, M. C., Chondroitin sulfate of thrombomodulin is an adhesion receptor for Plasmodium falciparum-infected erythrocyics. Mol. Biochem. Parasitol. 88, 267-271 (1997)), with 1 to 10% parasitaemia (a 1×10^7 IE/ml suspension).
For cytoadhesion inhibition assays, the IE were incubated with SBEC in the presence of 2.5 μg/ml thrombospondin, 0.1 mg/ml soluble CSA, dermatan sulphate (CSB), chondroitin-6-sulphate (CSC), keratin sulphate (Ker), hyaluronic acid (HA), heparin (Hep) (Fluka, France), or with SBEC previously incubated for 1 hour at 37° C. with 1 U/ml chondrotinase ABC (Fluka, France), 1 to 10 U/ml heparinase III (Hepase III) (Sigma, France) or 5 μg/ml anti-CD36 FA6-152 Mab (gift from Dr. Edelman). Inhibition assays were also carried out in the presence of sera obtained from Senegalese and Cameroonian patients living in areas of endemic malaria. The sera were obtained from primigravida and multigravida women, an adult and a child, absorbed onto O^+ human blood and SBEC ID, and tested at a dilution of 1/20. The results were compared to those for cytoadhesion in the presence of a 1/20 dilution of a pool of control sera from volunteers who had never contacted malaria.
The protease sensitivity of ring-stage IE cytoadhesion was analyzed using 5 μl of packed PA^CSA IE (8 hours post-invasion). IE were incubated with 10 or 100 μg/ml of trypsin TPCK (Signa) or 100 μg/ml of α-chymotrypsin TLCK (Sigma) for 30 minutes at 37° C. The digestion was stopped by adding culture medium containing 10% human plasma. The cells were then washed in cytoadhesion medium and allowed to cytoadhere to SBEC 1D, as previously described, using untreated PA^CSA as a control.

[2] = tested on: adherent rIE^CSA/nE and mature IE^CSA on SBEC 1D; assay: Cytoadhesion inhibition and desequestration under flow conditions at 0.05 Pa; conditions: B4 200 μg/ml, CSA 10 μg/ml final
Protocol: In short: Four serial 7 μm normal human placenta cryosections (each of approximately 4 mm×4 mm) of the maternal compartment were mounted on a microscopic slide 75-25 mm and fixed with 0.5% para-formaldehyde in PBS at pH 7.2, for 2 hours at room temperature. After washing several times with PBS and then with RPMI 1640 pH 6.8, the slide is mounted on a perfusing chamber (Immunetics, France). An equipart mixture of 8±4 hours old synchronized rIE^CSA (including nE from the same culture) and 34±4 hours old IE^CSA at a final hematocrit of 25% in RPMI 1640, pH 7.2 were then flow through the chamber for 10 min at 0.05 Pascals. After rinsing for 10 min with the medium at the same shear stress, 100 ug/ml of a 50 kDa CSA (Fluka, France) dissolved in RPMI or 200 ug/ml of mAbs was flushed through the chamber for 10 min at the same shear stress. Slides from 3 experiments were recovered and stained by Giemsa. Mature IE, rIE and nE were counted and the result expressed as arithmetic mean percentage of bound erythrocytes±SD/20 fields of 100× Oil magnification as described elsewhere (Gysin, J., B. Pouvelle, N. Fievet, A. Scherf, and C. Lepolard. 1999. Ex vivo desequestration of Plasmodium falciparum-infected erythrocytes from human placenta by chondroitin sulfate A. Infect Immun. 67:6596-602).

[3] = tested on: cytoadhesion of IE on endothelial cells or placenta cryosections; assay: Stage-specific cytoadhesion inhibition on endothelial cells or placenta cryosections (discussion)
Protocol: Cytoadhesion inhibition and disruption assays were performed on SBEC 1D cells grown to confluence on 12-dot IFA slides as described elsewhere (Pouvelle, B., P. Meyer, C. Robert, L. Bardel and J. Gysin. 1997. Chondroitin-4-sulfate impairs in vitro and in vivo cytoadherence of Plasmodium falciparum infected erythrocytes. Mol Med. 3:508-18) by assessing the laboratory CSA-binding strains FCR3, FCBR, BXII, SUK, HB, IBR and the placenta isolates no. 24, 42,42DJ, 193 and 939. In short: 20 μl of a mixture of synchronized rIE with nE or mIE from corresponding cultures at a parasitaemia of 4-15% for a total 10^7 IE/ml RPMI 1640, pH6.8 were layered per dot of confluent SBEC 1D cells. For the inhibition assay, 20 μl of each mAb at a concentration of 0.2 to 200 μg/ml was deposited simultaneously with rIE or IE and corresponding nE/dot for 2 hours at +37° C. For the disruption assay the same mAbs were added after a one hour preincubation of IEs and nEs with endothelial cells for an additional 1 hour. Unbound erythrocytes were removed by vigorously washing the slides in RPMI 1640, pH6.8. Bound IE and nE were fixed with 0.25% glutaraldehyde in PBS pH7.2. The inhibition and disruption of cytoadhesion was expressed as bound IE and nE/mm^2 of confluent endothelial cells in the presence of mAbs, in comparison to unrelated mouse IgG of the same IgG isotype (Sigma, USA). […]

## hyaluronate lyase
[1]
  inhibitory activity on ring-stage IE cytoadhesion to SBEC 1D (in words): low level of inhibitory activity

## heparin
[1]; Heparin 100 μg/ml, heparinase treatment of target cells, SBEC 1D
  inhibition of ring-stage cytoadhesion: about 50%

## Thrombospondin: mature-stage IE adhesion receptor protein tested at 2.5 μg/ml
[1]
  inhibitory activity on ring-stage IE cytoadhesion to SBEC 1D (in words): no effect

## dermatan-sulphate
[1]
  inhibitory activity on ring-stage IE cytoadhesion to SBEC 1D (in words): not specific

## hyaluronic acid
[1]
  inhibitory activity on ring-stage IE cytoadhesion to SBEC 1D (in words): no activity

## chondroitin-sulphate A [CSA]
[1]
  sensitivity of ring-stage IE^CSA cytoadhesion to inhibitor: insensitive
  time after invasion of maximal inhibition of IE^CSA binding: 24 h
[2]
  desequestration of adherent mature IE^CSA by flushing: removed only the mature forms
[3]; mature blood stages
  inhibition of cytoadhesion of mature blood stages: > 90%
[3]; young trophozoites (16-20 hours), RSP-2 and PfEMP1 both expressed
  inhibition of cytoadhesion of young trophozoites: ≤ 25%

## chondroitinase ABC
[1]
  sensitivity of ring-stage IE^CSA cytoadhesion to inhibitor: insensitive
  time after invasion of maximal inhibition of IE^CSA binding: 24 h
  inhibitory activity on ring-stage IE cytoadhesion to SBEC 1D (in words): no significant inhibitory activity

B1: trypsin: protease used to treat ring-stage IE (protein, UniProt P00760 24-246, looked up)
Serine protease 1: IVGGYTCGANTVPYQVSLNSGYHFCGGSLINSQWVVSAAHCYKSGIQVRLGEDNINVVEGNEQFISASKSIVHPSYNSNTLNNDIMLIKLKSAASLNSRVASISLPTSCASAGTQCLISGWGNTKSSGTSYPDVLKCLKAPILSDSSCKSAYPGQITSNMFCAGYLEGGKDSCQGDSGGPVVCSGKLQGIVSWGSGCAQKNKPGVYTKVCNYVSWIKQTIASN
modifications: TPCK-treated
notes: protease used to treat ring-stage IE
[1]; protease concentration 100 μg/ml
  inhibition of ring-stage IE adhesion after protease treatment of IE: substantially inhibited

From patent US20050169928A1, “Antibodies which bind to proteins involved in cytoadhesion of plasmodlum falciparum ring-stage-infected erythrocytes” (INSTITUT PASTEUR, priority 2000, published 2005)
